We go through 21 compounds from US9796711B2, “Substituted pyrazolo[3,4-b]pyridin-6-carboxylic acids and method of use” (AbbVie S.àr.l., priority 2015, dated 2017).

Assay [1] deals with T1, ΔF508-CFTR (Homo sapiens, UniProt P13569, DEL508-508).
T1 construct: host or cells: CFBE41o-, doxycycline-inducible
Description: CFTR cell surface levels using HRP-tagged ΔF508-CFTR expressing CFBE cells, in the presence of a co-corrector. The format is cell-based. The conditions noted are these: HRP-tagged ΔF508-CFTR expressing CFBE cells, in the presence of 3 μM co-corrector; for EC50: read-out: EC50. In a few lines: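 Cells were seeded with 0.5 μg/mL doxycycline and held 68 h at 37 °C. Test compounds plus 3 μM co-corrector (final 0.1% DMSO) were then added for 20 h at 33 °C. Washed cells received HRP substrate, and luminescence was normalized between DMSO and 3 μM co-corrector controls.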

Assay [2] has as its target T1, ΔF508-CFTR. Put plainly: CFTR cell surface levels using HRP-tagged ΔF508-CFTR expressing CFBE cells, intrinsic corrector capacity. The format is cell-based. The conditions noted are these: for EC50: read-out: EC50. In a few lines:
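Here the cells express ΔF508-CFTR with horseradish peroxidase inserted in extracellular loop 4, so only rescued channel at the surface gives luminescent signal. Compounds act on their own, 20 h at the reduced temperature of 33 °C; values are percent activity relative to DMSO and a 3 μM corrector.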

The mark [3] stands for this setting: HRP-tagged ΔF508-CFTR CFBE41o- cells, compounds alone (intrinsic corrector capacity), 20 hours at 33° C., positive control 3 μM corrector.
Where [4] appears, read: HRP-tagged ΔF508-CFTR CFBE41o- cells, compounds alone (intrinsic corrector capacity), 20 hours at 33° C.
Where [5] appears, read: HRP-tagged ΔF508-CFTR expressing CFBE cells, intrinsic corrector capacity (no co-corrector), 33° C., 20 hours.

T1 sequence (P13569 with tags, fused parts or gaps DEL508-508): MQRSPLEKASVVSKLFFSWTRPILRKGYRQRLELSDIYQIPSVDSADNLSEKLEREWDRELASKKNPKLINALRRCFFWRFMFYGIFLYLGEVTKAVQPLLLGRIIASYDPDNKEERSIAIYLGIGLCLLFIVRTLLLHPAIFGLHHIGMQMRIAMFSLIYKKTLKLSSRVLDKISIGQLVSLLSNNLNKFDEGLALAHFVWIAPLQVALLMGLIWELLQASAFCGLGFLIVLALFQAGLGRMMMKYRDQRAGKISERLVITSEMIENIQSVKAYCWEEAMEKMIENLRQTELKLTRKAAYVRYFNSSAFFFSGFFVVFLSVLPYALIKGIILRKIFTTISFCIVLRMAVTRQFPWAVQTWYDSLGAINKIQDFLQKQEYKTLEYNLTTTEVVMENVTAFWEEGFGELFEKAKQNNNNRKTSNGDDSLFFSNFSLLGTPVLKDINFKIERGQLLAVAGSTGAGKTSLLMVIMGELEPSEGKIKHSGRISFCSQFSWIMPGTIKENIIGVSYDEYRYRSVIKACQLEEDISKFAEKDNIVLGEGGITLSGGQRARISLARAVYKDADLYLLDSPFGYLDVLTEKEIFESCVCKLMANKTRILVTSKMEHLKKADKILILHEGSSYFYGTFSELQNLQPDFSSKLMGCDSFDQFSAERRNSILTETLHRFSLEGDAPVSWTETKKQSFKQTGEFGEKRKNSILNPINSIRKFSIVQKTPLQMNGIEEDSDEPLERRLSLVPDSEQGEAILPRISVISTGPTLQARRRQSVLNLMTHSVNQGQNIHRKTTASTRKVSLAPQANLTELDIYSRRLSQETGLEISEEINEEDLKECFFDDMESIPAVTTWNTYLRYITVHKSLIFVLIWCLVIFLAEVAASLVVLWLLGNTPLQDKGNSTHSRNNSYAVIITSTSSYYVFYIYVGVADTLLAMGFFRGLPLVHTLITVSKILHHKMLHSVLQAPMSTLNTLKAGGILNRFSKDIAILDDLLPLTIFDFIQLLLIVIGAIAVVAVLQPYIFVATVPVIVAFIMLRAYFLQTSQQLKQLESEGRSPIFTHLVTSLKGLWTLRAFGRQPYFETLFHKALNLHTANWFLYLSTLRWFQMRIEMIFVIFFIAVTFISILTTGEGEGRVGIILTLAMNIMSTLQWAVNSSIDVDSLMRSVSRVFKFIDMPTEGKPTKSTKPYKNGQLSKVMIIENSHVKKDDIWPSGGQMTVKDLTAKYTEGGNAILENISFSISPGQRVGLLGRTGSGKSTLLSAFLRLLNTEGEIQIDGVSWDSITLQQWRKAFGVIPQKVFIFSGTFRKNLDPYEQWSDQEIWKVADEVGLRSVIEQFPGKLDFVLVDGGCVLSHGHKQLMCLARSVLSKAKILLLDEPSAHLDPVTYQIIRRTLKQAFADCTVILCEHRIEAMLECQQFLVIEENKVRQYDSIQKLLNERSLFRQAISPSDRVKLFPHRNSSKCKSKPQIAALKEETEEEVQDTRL

For `CC(C)c1nn(-c2ccc(F)c(F)c2)c2nc(C(=O)O)cc(-c3ccc(N4CCOCC4)cc3)c12` [compound 243, 1-(3,4-difluorophenyl)-4-[4-(morpholin-4-yl)phenyl]-3-(propan-2-yl)-1H-pyrazolo[3,4-b]pyridine-6-carboxylic acid], the “% Activation” value was 402.73% in assay [1] and 224.73% in assay [2] (setting [3]). Further, the EC50 in assay [1] came to 408 nM; in assay [2] (setting [4]), 660 nM.
In the case of `COCCN(C)c1ccc(-c2cc(C(=O)O)nc3c2c(C(C)C)nn3-c2cccc(N3CCOCC3)c2)cn1` [compound 179], the “% Activation” value was 548% in assay [1] and 329.25% in assay [2] (setting [3]). Moreover, the EC50 turned out to be 978 nM in assay [1] and 2820 nM in assay [2] (setting [4]).
The like results for `Cc1nn(-c2ccccc2)c2nc(C(=O)O)cc(OC[C@@H](F)C3CCOCC3)c12` [compound 335, 4-[(2S)-2-fluoro-2-(oxan-4-yl)ethoxy]-3-methyl-I-phenyl-1H-pyrazolo[3,4-b]pyridine-6-carboxylic acid] were, in that order, 259.25%, 100.33%, 1380 nM and 1610 nM.
`CN(C)Cc1nn(-c2ccccc2)c2nc(C(=O)O)cc(-c3ccc(N4CCOCC4)cc3)c12` [compound 87, 3-[(dimethylamino)methyl]-4-[4-(morpholin-4-yl)phenyl]-1-phenyl-1H-pyrazolo[3,4-b]pyridine-6-carboxylic acid]: the “% Activation” value in assay [1] turned out to be 148.9%; in assay [2] (setting [3]) it was 28.91%. Besides, the EC50 in assay [1] was 3340 nM; in assay [2] (setting [4]), greater than 10000 nM.
As for `Cc1nn(-c2ccccc2)c2nc(C(=O)O)cc(N3CCN(CC(=O)N(C)C)CC3)c12` [compound 323, 4-{4-[2-(dimethylamino)-2-oxoethyl]piperazin-1-yl}-3-methyl-1-phenyl-1H-pyrazolo[3,4-b]pyridine-6-carboxylic acid], the “% Activation” value in assay [1] is 128.4%; in assay [2] (setting [3]), 8.143%. Further, the EC50 in assay [1] and in assay [2] (setting [4]) was greater than 10000 nM throughout.
On to `O=C(O)c1cc(N2CC[C@@H](F)[C@H](O)C2)c2c(C3CCC3)nn(-c3ccccc3)c2n1` [compound 465, 3-cyclobutyl-4-[(3R,4R)-4-fluoro-3-hydroxypiperidin-1-yl]-1-phenyl-1H-pyrazolo[3,4-b]pyridine-6-carboxylic acid], for which the “% Activation” value worked out at 244.6% in assay [1] and 91.04% in assay [2] (setting [5]). Also, the figures for the EC50 in assay [1] and in assay [2] (setting [5]) were 703 nM and 1850 nM, respectively.
For `Cc1nn(-c2ccccc2)c2nc(C(=O)O)cc(OC3COC3)c12` [compound 341, 3-methyl-4-[(oxetan-3-yl)oxy]-1-phenyl-1H-pyrazolo[3,4-b]pyridine-6-carboxylic acid], the “% Activation” value in assay [1] turned out to be 149.55%; in assay [2] (setting [3]), 25.115%. The figures for the EC50 in assay [1] and in assay [2] (setting [4]) were 4090 nM and 4170 nM, respectively.
As for `CC(C)N(CCOc1cc(C(=O)O)nc2c1c(C1CCC1)nn2-c1ccccc1)C1COC1` [compound 478, 3-cyclobutyl-4-{2-[(oxetan-3-yl)(propan-2-yl)amino]ethoxy}-1-phenyl-1H-pyrazolo[3,4-b]pyridine-6-carboxylic acid], the “% Activation” value is listed as 292% in assay [1] and 125.2% in assay [2] (setting [5]). Besides, the EC50 in assay [1] was 409 nM; in assay [2] (setting [5]), 828 nM.
Consider `CN(C1CCOCC1)C1CCN(c2cc(C(=O)O)nc3c2c(C2CCC2)nn3-c2ccc(F)cc2)CC1` [compound 854, 3-cyclobutyl-1-(4-fluorophenyl)-4-{4-[methyl(oxan-4-yl)amino]piperidin-1-yl}-1H-pyrazolo[3,4-b]pyridine-6-carboxylic acid], for which the figures for the “% Activation” value in assay [1] and in assay [2] (setting [5]) were 380.7% and 131.1%, respectively. Further, the EC50 in assay [1] is 3330 nM; in assay [2] (setting [5]) it was 2080 nM.
The like results for `COC(C)C1CCN(c2cc(C(=O)O)nc3c2c(C2CCC2)nn3-c2ccccc2)CC1` (stereo not drawn) [compound 498, 3-cyclobutyl-4-[4-(1-methoxyethyl)piperidin-1-yl]-1-phenyl-1H-pyrazolo[3,4-b]pyridine-6-carboxylic acid] were, in that order, 435.9%, 244.33%, 87.8 nM and 326 nM.
Regarding `CC(C)(CO)c1nn(-c2ccccc2)c2nc(C(=O)O)cc(-c3ccc(N4CCOCC4)nc3)c12` [compound 92, 3-(1-hydroxy-2-methylpropan-2-yl)-4-[6-(morpholin-4-yl)pyridin-3-yl]-1-phenyl-1H-pyrazolo[3,4-b]pyridine-6-carboxylic acid], the “% Activation” value in assay [1] was found to be 99.81%; in assay [2] (setting [3]), 2.873%. Further, the EC50 in assay [1] and in assay [2] (setting [4]) was greater than 10000 nM throughout.
As for `Cc1nn(-c2ccccc2)c2nc(C(=O)O)cc(N3CCC(F)CC3)c12` [compound 297, 4-(4-fluoropiperidin-1-yl)-3-methyl-1-phenyl-1H-pyrazolo[3,4-b]pyridine-6-carboxylic acid], the results for the “% Activation” value in assay [1] and in assay [2] (setting [3]) were 184.07% and 50.78%, respectively. For the same compound, the values for the EC50 in assay [1] and in assay [2] (setting [4]) were 3340 nM and 2230 nM, respectively.
Take `O=C(O)c1cc(N2CCC(CN3CCCCC3)CC2)c2c(C3CCC3)nn(-c3ccccc3)c2n1` [compound 686, 3-cyclobutyl-1-phenyl-4-{4-[(piperidin-1-yl)methyl]piperidin-1-yl}-1H-pyrazolo[3,4-b]pyridine-6-carboxylic acid]: the “% Activation” value in assay [1] is recorded as 431.1%; in assay [2] (setting [5]), 240.4%. Further, the EC50 came out at 237 nM in assay [1] and 1670 nM in assay [2] (setting [5]).
The like results for `CC(C)CN1C[C@@H]2CN(c3cc(C(=O)O)nc4c3c(C3CCC3)nn4-c3ccccc3)C[C@@H]2C1` [compound 692, 3-cyclobutyl-4-[(3aR,6aS)-5-(2-methylpropyl)hexahydropyrrolo[3,4-c]pyrrol-2(1H)-yl]-1-phenyl-1H-pyrazolo[3,4-b]pyridine-6-carboxylic acid] were, in that order, 381.4%, 208.1%, 931 nM and 1670 nM.
Regarding `O=C(O)c1cc(CN2CCOCC2)c2c(C3CCC3)nn(-c3ccc(F)cc3)c2n1` [compound 857, 3-cyclobutyl-1-(4-fluorophenyl)-4-[(morpholin-4-yl)methyl]-1H-pyrazolo[3,4-b]pyridine-6-carboxylic acid], in assay [1], the “% Activation” value was determined as 232.2% and the concentration giving a half-maximal response (EC50) turned out to be 2440 nM. In assay [2] (setting [5]), the “% Activation” value turned out to be 60.01% and the EC50 turned out to be 3330 nM.
For the compound `Cc1nn(-c2ccccc2)c2nc(C(=O)O)cc(N3CCC(C(=O)N4CCCC4)CC3)c12` [compound 305, 3-methyl-1-phenyl-4-[4-(pyrrolidine-1-carbonyl)piperidin-1-yl]-1H-pyrazolo[3,4-b]pyridine-6-carboxylic acid], the “% Activation” value in assay [1] stood at 170.5%; in assay [2] (setting [3]), 29.97%. Moreover, the EC50 in assay [1] was found to be 1440 nM; in assay [2] (setting [4]) it was 3120 nM.
Take `O=C(O)c1cc(OC[C@H](F)C2CCOCC2)c2c(C3CCC3)nn(-c3ccccc3)c2n1` [compound 434, 3-cyclobutyl-4-[(2R)-2-fluoro-2-(oxan-4-yl)ethoxy]-1-phenyl-1H-pyrazolo[3,4-b]pyridine-6-carboxylic acid]: the results for the “% Activation” value in assay [1] and in assay [2] (setting [5]) were 342.8% and 154.17%, respectively. Further, the EC50 in assay [1] worked out at 328 nM; in assay [2] (setting [5]), 581 nM.
Take `O=C(O)c1cc(N2CCC(CN3CC4CC4C3)CC2)c2c(C3CCC3)nn(-c3ccccc3)c2n1` (stereo not drawn) [compound 844, 4-{4-[(3-azabicyclo[3.1.0]hexan-3-yl)methyl]piperidin-1-yl}-3-cyclobutyl-1-phenyl-1H-pyrazolo[3,4-b]pyridine-6-carboxylic acid]: the “% Activation” value was found to be 429.2% in assay [1] and 184.9% in assay [2] (setting [5]). The values for the EC50 in assay [1] and in assay [2] (setting [5]) were 206 nM and 210 nM, respectively.
For the compound `CC1(COc2cc(C(=O)O)nc3c2c(C2CCC2)nn3-c2ccccc2)COC1` [compound 490, 3-cyclobutyl-4-[(3-methyloxetan-3-yl)methoxy]-1-phenyl-1H-pyrazolo[3,4-b]pyridine-6-carboxylic acid], in assay [1], the “% Activation” value is listed as 311.1% and the EC50 stood at 296 nM. Besides, in assay [2] (setting [5]), the “% Activation” value was determined as 144.95% and the EC50 came out at 400 nM.
In the case of `Cc1nn(-c2ccccc2)c2nc(C(=O)O)cc(N3CCC(O)CC3)c12` [compound 137, 4-(4-hydroxypiperidin-1-yl)-3-methyl-1-phenyl-1H-pyrazolo[3,4-b]pyridine-6-carboxylic acid], the “% Activation” value in assay [1] was 158.05%; in assay [2] (setting [3]), 27.985%. Besides, the EC50 in assay [1] is 3340 nM; in assay [2] (setting [4]), greater than 10000 nM.
The like results for `COC1CCN(c2cc(C(=O)O)nc3c2c(C)nn3-c2ccccc2)CC1` [compound 143, 4-(4-methoxypiperidin-1-yl)-3-methyl-1-phenyl-1H-pyrazolo[3,4-b]pyridine-6-carboxylic acid] were, in that order, 246.8%, 109.45%, 2420 nM and 2290 nM.

In general, EC50 refers to the concentration that produces a half-maximal response.
